Earlier results as cited in patent US12205808B2 (priority 2019, dated 2025).

Details: in vivo

Cc1ccc(C(=O)c2cn(CCCCCF)c3ccccc23)c2ccccc12 [MAM-2201]
Concentration in postmortem plasma samples: 16.3 ng/mL

N#CCCCCn1cc(C(=O)c2cccc3ccccc23)c2ccccc21 [AM-2232]
Concentration in postmortem plasma samples: 0.86 ng/mL

CC(C)[C@H](NC(=O)c1nn(CC2CCCCC2)c2ccccc12)C(N)=O
Concentration in plasma: 0.4 to 14.3 ng/mL
Whole blood concentrations: 0.6 to 10 ng/mL
